Experimental data taken from patent publication US10676459B2, “Antifungal compounds and processes for making” (MYCOVIA PHARMACEUTICALS INC., priority 2015, dated 2020).

Columns and labels:
[1] = Gravimetric Vapor Sorption (GVS) isotherm and XRPD post GVS; type: physicochemical
Description: Gravimetric Vapor Sorption (GVS) isotherms were obtained using a SMS DVS Intrinsic moisture sorption analyser, controlled by DVS Intrinsic Control software v1.0.1.2 (or v 1.0.1.3). The sample temperature was maintained at 25° C. by the instrument controls. The humidity was controlled by mixing streams of dry and wet nitrogen, with a total flow rate of 200 mL/min. The relative humidity was measured by a calibrated Rotronic probe (dynamic range of 1.0-100% RH), located near the sample. The weight change, (mass relaxation) of the sample as a function of % RH was constantly monitored by the microbalance (accuracy ±0.005 mg). Typically 5-20 mg of sample was placed in a tared mesh stainless steel basket under ambient conditions. The sample was loaded and unloaded at 40% RH and 25° C. (typical room conditions). A moisture sorption isotherm was performed as outlined below (2 scans giving 1 complete cycle). The standard isotherm was performed at 25° C. at 10% RH intervals over a 0-90% RH range. Data analysis was undertaken in Microsoft Excel using DVS Analysis Suite v6.2 (or 6.1 or 6.0).
Method Parameters for SMS DVS Intrinsic Experiments
The sample was recovered after completion of the isotherm and re-analysed by XRPD.

[2] = Solubility and pH of saturated solution; type: physicochemical
[3] = XRPD stability post 2 weeks storage at temperature and humidity; type: physicochemical
Description: X-Ray Powder Diffraction patterns were collected on a Bruker AXS C2 GADDS diffractometer using Cu Kα radiation (40 kV, 40 mA), automated XYZ stage, laser video microscope for auto-sample positioning and a Hi Star 2-dimensional area detector. X-ray optics consists of a single Göbel multilayer mirror coupled with a pinhole collimator of 0.3 mm. A weekly performance check is carried out using a certified standard NIST 1976 Corundum (flat plate). The beam divergence, i.e. the effective size of the X-ray beam on the sample, was approximately 4 mm. A Θ-Θ continuous scan mode was employed with a sample-detector distance of 20 cm which gives an effective […] of 3.2°-29.7°. Typically the sample would be exposed to the X-ray beam for 120 seconds. The software used for data collection was GADDS for XP/2000 4.1.43 and the data were analysed and presented using Diffrac Plus EVA v13.0.0.2 or v15.0.0.0. […]
X-Ray Powder Diffraction patterns were also collected on a Bruker D8 diffractometer using Cu Kα radiation (40 kV, 40 mA), 0-20 goniometer, and divergence of V4 and receiving slits, a Ge monochromator and a Lynxeye detector. […] The software used for data collection was Diffrac Plus XRD Commander v2.6.1 and the data were analysed and presented using Diffrac Plus EVA v13.0.0.2 or v15.0.0.0. […]

[4] = Human multiple-dose pharmacokinetic comparison; type: in vivo; details: for Cmax / Tmax: in vivo
Description: Human Pharmacokinetic Comparison of Compound 1 X-Hydrate and Compound 1 Anhydrous Form
Table 6 compares human multiple-dose pharmacokinetic (PK) parameters between dosing with Compound 1 X-hydrate and Compound 1 Anhydrous form. Compound 1 X-hydrate was dosed at 600 mg twice daily (bid) for three days followed by dosing at 300 mg once daily (qd) for 10 days. Compound 1 Anhydrous form was dosed at 300 mg qd for 14 days.

[5] = 600 mg bid loading dose for 3 days, then 300 mg qd maintenance for 10 days
[6] = 300 mg qd for 14 days vs X-hydrate 600 mg bid for three days then 300 mg qd for 10 days

GVS sample hysteresis ([1]; 0-90% RH, 25° C.)	GVS water uptake at 90% RH ([1]; 25° C., listed as X-hydrate 1)	XRPD post GVS ([1]; after GVS experiment)	solubility [2]	pH of saturated solution ([2]; listed as X-hydrate 1)	XRPD stability post 2 weeks at 25° C. & 97% RH ([3]; 25° C. & 97% RH)	XRPD stability post 2 weeks at 40° C. & 75% RH ([3]; 40° C. & 75% RH)	AUC0-8 h [4, 5]	Cmax [4, 5]	Tmax [4, 5]	GVS water uptake at 90% RH ([1]; 25° C., listed as Anhydrous 1)	pH of saturated solution ([2]; listed as Anhydrous 1)	AUC0-8 h ([4]; 300 mg qd for 14 days)	area-under-the-curve (AUC) compared with Compound 1 X-hydrate [4, 6]	maximal concentration (Cmax) compared with Compound 1 X-hydrate [4, 6]	Cmax ([4]; 300 mg qd for 14 days)	Tmax ([4]; 300 mg qd for 14 days)	SMILES
90% RH. No sample hysteresis	0.59% w/w water uptake at	No form change after GVS	< 1 µg/mL	pH of saturated solution = 8.6	No change in crystalline form	No change in crystalline form	17600 ngh/mL	2520 ng/mL	5 h	–	–	–	–	–	–	–	O[C@@](Cn1cnnn1)(c1ccc(F)cc1F)C(F)(F)c1ccc(-c2ccc(OCC(F)(F)F)cc2)cn1 [Compound 1 X-Hydrate]
–	–	–	–	–	–	–	–	–	–	0.14% w/w water uptake at	pH of saturated solution = 8.7	35653 ngh/mL	higher	higher	4690 ng/mL	5 h	O[C@@](Cn1cnnn1)(c1ccc(F)cc1F)C(F)(F)c1ccc(-c2ccc(OCC(F)(F)F)cc2)cn1 [Compound 1 Anhydrous]
